A short description of data set [1]: Chromatographic hydrophobicity index, log D of the compound in pH 7.4 ammonium acetate buffer/acetonitrile gradient by HPLC analysis. It is filed as physicochemical.
Data set [2] can be described thus: Volume of distribution at steady state in Wistar Han rat at 1 mg/kg administered as iv infusion for 1 hr and measured up to 24 hrs by LC-MS/MS analysis. It is filed as ADME, organism-based. The settings on record: in vivo, read-out: Vdss.
Data set [3] can be described thus: Half life in Wistar Han rat at 1 mg/kg administered as iv infusion for 1 hr and measured up to 24 hrs by LC-MS/MS analysis. The settings on record: in vivo. It is filed as ADME, organism-based.
The nature of data set [4]: Volume of distribution at steady state in Beagle dog at 1 mg/kg, iv. It counts as ADME, organism-based, Canis lupus familiaris. The settings on record: in vivo, read-out: Vdss.
The nature of data set [5]: Oral bioavailability in Beagle dog at 1 mg/kg, […]. The settings on record: in vivo. It counts as ADME, organism-based, Canis lupus familiaris.
Data set [6] concerns the target Bromodomain-containing protein 1 (Homo sapiens) (UniProt O95696). The experiment in a line: Inhibition of human partial length BRD1 (E556 to A688 residues) expressed in bacterial expression system by BROMOscan assay.
Data set [7] concerns the target Bromodomain-containing protein 3 (Homo sapiens) (UniProt Q15059). The experiment in a line: Inhibition of BRD3 bromodomain 1/2 (unknown origin) by BROMOscan assay.
Data set [8] deals with Bromodomain and PHD finger-containing protein 3 (Homo sapiens) (UniProt Q9ULD4). Kind of data set: Inhibition of human partial length BRPF3 (E588 to G701 residues) expressed in bacterial expression system by BROMOscan assay.
Data set [9] has as its target Chromatin remodeling regulator CECR2 (Homo sapiens) (UniProt Q9BXF3). Kind of data set: Inhibition of human partial length CECR2 (P423 to D543 residues) expressed in bacterial expression system by BROMOscan assay.
Data set [10] deals with Nucleosome-remodeling factor subunit BPTF (Homo sapiens) (UniProt Q12830). The experiment in a line: Inhibition of human partial length FALZ (S2791 to H2911 residues) expressed in bacterial expression system by BROMOscan assay.
Data set [11] concerns the target Histone acetyltransferase KAT2A (Homo sapiens) (UniProt Q92830). Kind of data set: Inhibition of human partial length GCN5L2 (E726 to K837 residues) expressed in bacterial expression system by BROMOscan assay.
In data set [12] the target is Histone acetyltransferase KAT2B (Homo sapiens) (UniProt Q92831). Kind of data set: Inhibition of human partial length PCAF (G715 to D831 residues) expressed in bacterial expression system by BROMOscan assay.
Chain of Histone acetyltransferase KAT2B (Homo sapiens) (Q92831 whole entry, looked up, the tested form may be a part): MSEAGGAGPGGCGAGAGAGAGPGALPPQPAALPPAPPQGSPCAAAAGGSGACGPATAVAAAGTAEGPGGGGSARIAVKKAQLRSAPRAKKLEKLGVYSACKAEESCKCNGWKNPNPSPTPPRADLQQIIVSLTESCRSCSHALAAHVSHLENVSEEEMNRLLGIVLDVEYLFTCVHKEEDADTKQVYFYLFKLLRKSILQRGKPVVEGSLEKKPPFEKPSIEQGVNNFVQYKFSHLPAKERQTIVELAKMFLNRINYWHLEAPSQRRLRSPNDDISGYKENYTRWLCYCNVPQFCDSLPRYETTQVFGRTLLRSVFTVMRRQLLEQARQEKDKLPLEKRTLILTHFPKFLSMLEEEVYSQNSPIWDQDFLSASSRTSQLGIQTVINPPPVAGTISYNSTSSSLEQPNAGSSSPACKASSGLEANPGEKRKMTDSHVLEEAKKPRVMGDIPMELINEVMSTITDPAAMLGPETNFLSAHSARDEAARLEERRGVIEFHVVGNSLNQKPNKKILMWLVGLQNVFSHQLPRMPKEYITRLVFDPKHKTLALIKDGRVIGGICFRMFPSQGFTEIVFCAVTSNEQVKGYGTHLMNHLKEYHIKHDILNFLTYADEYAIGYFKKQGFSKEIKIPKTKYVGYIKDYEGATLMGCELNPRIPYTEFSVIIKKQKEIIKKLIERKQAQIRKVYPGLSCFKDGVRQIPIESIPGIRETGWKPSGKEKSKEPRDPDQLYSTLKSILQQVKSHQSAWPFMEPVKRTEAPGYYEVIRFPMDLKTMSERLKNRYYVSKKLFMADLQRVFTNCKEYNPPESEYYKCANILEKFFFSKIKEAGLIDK
The target of data set [13] is E3 ubiquitin-protein ligase TRIM33 (Homo sapiens) (UniProt Q9UPN9). Kind of data set: Inhibition of human partial length TRIM33 (D882 to A1087 residues) expressed in bacterial expression system by BROMOscan assay.
Chain of E3 ubiquitin-protein ligase TRIM33 (Homo sapiens) (Q9UPN9 whole entry, the tested form may be a part): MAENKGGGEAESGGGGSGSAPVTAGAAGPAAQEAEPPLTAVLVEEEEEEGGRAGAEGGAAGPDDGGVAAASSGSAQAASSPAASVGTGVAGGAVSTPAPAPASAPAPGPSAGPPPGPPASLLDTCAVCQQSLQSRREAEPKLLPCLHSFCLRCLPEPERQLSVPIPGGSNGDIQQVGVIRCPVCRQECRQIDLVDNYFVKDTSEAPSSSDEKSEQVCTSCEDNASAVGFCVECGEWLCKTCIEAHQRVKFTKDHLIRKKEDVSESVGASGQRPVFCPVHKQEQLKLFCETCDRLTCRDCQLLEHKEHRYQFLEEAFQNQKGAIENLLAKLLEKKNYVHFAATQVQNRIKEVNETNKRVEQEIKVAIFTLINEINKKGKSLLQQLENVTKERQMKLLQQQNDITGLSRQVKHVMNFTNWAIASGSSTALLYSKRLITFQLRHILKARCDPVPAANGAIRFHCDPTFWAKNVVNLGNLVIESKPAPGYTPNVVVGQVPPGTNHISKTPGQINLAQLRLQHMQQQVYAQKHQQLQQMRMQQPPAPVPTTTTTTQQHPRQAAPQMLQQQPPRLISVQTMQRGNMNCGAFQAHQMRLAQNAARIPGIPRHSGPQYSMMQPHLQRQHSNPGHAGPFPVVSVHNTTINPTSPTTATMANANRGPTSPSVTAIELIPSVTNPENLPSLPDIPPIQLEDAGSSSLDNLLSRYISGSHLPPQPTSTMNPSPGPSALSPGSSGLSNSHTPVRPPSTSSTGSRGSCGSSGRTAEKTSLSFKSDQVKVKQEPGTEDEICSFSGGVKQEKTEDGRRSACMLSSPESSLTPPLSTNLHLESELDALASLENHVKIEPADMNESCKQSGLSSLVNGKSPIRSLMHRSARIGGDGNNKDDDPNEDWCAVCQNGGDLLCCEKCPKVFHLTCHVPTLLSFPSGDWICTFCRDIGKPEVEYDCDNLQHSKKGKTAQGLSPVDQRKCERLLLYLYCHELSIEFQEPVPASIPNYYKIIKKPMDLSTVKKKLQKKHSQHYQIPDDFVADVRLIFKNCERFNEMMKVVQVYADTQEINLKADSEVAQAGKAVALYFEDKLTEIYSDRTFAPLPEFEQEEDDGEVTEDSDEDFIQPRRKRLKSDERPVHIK

As usually defined, the half-life is the time needed for the level to fall by half in the phase considered. A lower half-life goes with fast loss. The term bioavailability denotes the share of a dose that reaches the circulation, judged against a reference dose that is usually intravenous. Read a high bioavailability as good availability.

SMILES strings stand for the structures. Active and inactive are the calls of the source.

Chain of Chromatin remodeling regulator CECR2 (Homo sapiens) (Q9BXF3 whole entry, looked up, the tested form may be a part): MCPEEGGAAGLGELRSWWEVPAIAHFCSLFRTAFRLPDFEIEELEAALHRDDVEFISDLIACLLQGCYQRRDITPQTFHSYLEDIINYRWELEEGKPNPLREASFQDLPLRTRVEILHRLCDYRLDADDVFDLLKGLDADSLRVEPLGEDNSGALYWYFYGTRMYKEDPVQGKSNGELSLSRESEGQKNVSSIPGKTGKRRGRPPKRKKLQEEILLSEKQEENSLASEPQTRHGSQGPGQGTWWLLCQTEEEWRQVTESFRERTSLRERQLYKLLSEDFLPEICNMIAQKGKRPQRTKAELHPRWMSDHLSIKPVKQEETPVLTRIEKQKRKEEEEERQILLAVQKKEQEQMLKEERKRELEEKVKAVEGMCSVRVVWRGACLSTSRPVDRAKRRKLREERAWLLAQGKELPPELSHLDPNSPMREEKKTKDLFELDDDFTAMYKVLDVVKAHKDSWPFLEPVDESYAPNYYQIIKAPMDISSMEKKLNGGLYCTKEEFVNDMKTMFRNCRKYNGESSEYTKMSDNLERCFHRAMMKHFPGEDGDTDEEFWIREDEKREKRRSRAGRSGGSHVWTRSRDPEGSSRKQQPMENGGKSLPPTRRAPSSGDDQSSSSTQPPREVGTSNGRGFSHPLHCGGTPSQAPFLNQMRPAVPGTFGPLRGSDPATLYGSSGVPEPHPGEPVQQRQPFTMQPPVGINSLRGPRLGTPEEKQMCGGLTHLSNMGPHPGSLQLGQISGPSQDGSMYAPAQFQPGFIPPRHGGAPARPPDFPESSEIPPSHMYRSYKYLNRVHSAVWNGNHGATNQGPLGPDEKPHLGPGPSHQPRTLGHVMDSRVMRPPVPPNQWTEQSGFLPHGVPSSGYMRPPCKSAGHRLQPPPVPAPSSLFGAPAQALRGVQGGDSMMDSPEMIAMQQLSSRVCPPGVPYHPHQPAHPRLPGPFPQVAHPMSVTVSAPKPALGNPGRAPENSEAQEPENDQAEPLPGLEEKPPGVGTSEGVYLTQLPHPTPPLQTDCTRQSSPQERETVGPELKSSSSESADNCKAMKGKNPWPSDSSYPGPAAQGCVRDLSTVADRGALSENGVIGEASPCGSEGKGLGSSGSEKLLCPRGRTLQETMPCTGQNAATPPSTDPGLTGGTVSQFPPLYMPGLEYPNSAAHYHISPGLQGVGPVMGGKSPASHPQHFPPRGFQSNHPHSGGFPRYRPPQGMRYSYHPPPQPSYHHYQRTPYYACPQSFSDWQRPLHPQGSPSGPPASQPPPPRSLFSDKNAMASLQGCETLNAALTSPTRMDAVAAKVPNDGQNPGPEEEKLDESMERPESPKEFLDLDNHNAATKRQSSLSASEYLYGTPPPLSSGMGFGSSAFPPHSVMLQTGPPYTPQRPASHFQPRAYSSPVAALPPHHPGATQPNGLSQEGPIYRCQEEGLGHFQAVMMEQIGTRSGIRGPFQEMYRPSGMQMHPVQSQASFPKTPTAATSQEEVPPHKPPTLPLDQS
Chain of Bromodomain-containing protein 3 (Homo sapiens) (Q15059 2-726 limits assumed): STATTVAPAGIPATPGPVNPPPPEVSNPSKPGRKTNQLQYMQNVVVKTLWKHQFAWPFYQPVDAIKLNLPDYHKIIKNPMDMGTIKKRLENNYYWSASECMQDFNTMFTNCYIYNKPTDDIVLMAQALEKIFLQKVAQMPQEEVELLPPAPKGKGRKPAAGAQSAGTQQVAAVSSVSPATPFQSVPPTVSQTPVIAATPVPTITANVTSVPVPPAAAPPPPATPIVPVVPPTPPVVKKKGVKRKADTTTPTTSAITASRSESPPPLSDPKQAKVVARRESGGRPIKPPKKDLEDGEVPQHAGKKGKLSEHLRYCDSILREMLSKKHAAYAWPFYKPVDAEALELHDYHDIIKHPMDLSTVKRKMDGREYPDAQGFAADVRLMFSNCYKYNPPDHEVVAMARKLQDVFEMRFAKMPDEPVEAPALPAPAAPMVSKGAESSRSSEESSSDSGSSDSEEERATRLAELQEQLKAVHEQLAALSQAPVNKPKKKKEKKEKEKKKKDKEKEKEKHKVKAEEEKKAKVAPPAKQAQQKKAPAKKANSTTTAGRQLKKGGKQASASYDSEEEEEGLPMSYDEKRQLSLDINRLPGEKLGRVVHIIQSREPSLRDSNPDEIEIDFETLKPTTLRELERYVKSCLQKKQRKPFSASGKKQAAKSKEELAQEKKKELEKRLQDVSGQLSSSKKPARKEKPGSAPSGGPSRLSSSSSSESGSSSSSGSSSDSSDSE
Chain of Histone acetyltransferase KAT2A (Homo sapiens) (Q92830 2-837 limits assumed): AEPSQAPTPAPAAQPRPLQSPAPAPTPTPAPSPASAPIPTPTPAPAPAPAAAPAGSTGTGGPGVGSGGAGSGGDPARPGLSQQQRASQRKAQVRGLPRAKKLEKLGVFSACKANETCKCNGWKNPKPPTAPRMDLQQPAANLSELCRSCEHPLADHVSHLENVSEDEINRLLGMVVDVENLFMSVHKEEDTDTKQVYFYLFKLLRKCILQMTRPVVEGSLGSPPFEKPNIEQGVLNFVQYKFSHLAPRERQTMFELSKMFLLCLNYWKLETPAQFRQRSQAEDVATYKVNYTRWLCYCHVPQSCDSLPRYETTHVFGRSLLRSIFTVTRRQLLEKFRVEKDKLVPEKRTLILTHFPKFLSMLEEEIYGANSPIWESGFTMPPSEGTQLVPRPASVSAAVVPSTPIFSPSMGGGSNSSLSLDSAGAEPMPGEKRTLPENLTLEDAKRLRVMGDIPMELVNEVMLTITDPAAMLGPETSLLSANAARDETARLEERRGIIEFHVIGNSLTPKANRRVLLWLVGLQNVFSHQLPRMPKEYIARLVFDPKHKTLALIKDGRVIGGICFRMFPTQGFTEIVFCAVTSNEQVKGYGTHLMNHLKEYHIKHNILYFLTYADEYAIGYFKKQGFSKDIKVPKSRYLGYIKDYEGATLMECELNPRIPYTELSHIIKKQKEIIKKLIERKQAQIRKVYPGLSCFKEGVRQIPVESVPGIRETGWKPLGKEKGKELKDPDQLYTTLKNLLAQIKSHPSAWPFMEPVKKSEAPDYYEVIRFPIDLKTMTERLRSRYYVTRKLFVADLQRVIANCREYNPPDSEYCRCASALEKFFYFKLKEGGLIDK

As for `CNC(=O)c1cc(C(=O)N[C@@H]2[C@@H]3COC[C@@H]32)cc2c1O[C@H](CF)[C@H]2c1ccccc1`, the CHI in [1] was 3.56. Also, the Vd came out at 2.1 L/kg in data set [2] and 1.3 L/kg in [4]. Moreover, the half-life in data set [3] was 36 min. The compound further had a bioavailability in data set [5] of 87%. The inhibition result in [6], in data set [7], in [8], in [9], in data set [10] and in [11] was “inactive” throughout. For the same compound, the inhibition result in data set [12] and in data set [13] was “inactive” each time.

For the origin of these results see ChEMBL document CHEMBL4619816, “GSK973 Is an Inhibitor of the Second Bromodomains (BD2s) of the Bromodomain and Extra-Terminal (BET) Family” (ACS Med Chem Lett, 2020).
